Among the data in PubChem BioAssay AID330 (DTP/NCI, 2004) are T/C values, retold here.

The experiment concerns P388 leukemia ip, CD2F1 mice, survival T/C. The experiment in a line: NCI In Vivo Anticancer Drug Screen. Data for tumor model P388 Leukemia (intraperitoneal) in CD2F1 (CDF1) mice. The following applies: endpoint: median survival time, higher = longer survival. A digest of the protocol:
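Mice carrying the transplanted tumor received test compound or vehicle. Survival was recorded in each group, and the value is the treated-group measurement divided by that of the vehicle-treated control group.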

Setting [1] is: dose: 60.0 mg/kg/injection, schedule: Q01DX005 (ip), vehicle: saline.
The mark [2] stands for this setting: dose: 120.0 mg/kg/injection, schedule: Q01DX005 (ip), vehicle: saline.
Setting [3] is: dose: 100.0 mg/kg/injection, schedule: Q04DX002 (ip), vehicle: saline with Tween-80.
Setting [4] is: dose: 200.0 mg/kg/injection, schedule: Q04DX002 (ip), vehicle: saline with Tween-80.
[5] abbreviates: dose: 400.0 mg/kg/injection, schedule: Q04DX002 (ip), vehicle: saline with Tween-80.
Where [6] appears, read: dose: 50.0 mg/kg/injection, schedule: Q01DX009 (ip), vehicle: saline with Tween-80.
Setting [7] is: dose: 100.0 mg/kg/injection, schedule: Q01DX009 (ip), vehicle: saline with Tween-80.
[8] abbreviates: dose: 200.0 mg/kg/injection, schedule: Q01DX009 (ip), vehicle: saline with Tween-80.
Where [9] appears, read: dose: 12.5 mg/kg/injection, schedule: Q01DX009 (ip), vehicle: Klucel (hydroxypropylcellulose) (HPC).
Setting [10] is: dose: 25.0 mg/kg/injection, schedule: Q01DX009 (ip), vehicle: Klucel (hydroxypropylcellulose) (HPC).
Setting [11] is: dose: 50.0 mg/kg/injection, schedule: Q01DX009 (ip), vehicle: Klucel (hydroxypropylcellulose) (HPC).
Where [12] appears, read: dose: 100.0 mg/kg/injection, schedule: Q01DX009 (ip), vehicle: Klucel (hydroxypropylcellulose) (HPC).
The mark [13] stands for this setting: dose: 200.0 mg/kg/injection, schedule: Q01DX009 (ip), vehicle: saline.
Where [14] appears, read: dose: 50.0 mg/kg/injection, schedule: Q01DX005 (ip), vehicle: Klucel (hydroxypropylcellulose) (HPC).
The mark [15] stands for this setting: dose: 100.0 mg/kg/injection, schedule: Q01DX005 (ip), vehicle: Klucel (hydroxypropylcellulose) (HPC).
The mark [16] stands for this setting: dose: 200.0 mg/kg/injection, schedule: Q01DX005 (ip), vehicle: Klucel (hydroxypropylcellulose) (HPC).
[17] abbreviates: dose: 12.5 mg/kg/injection, schedule: Q01DX009 (ip), vehicle: saline with Tween-80.
[18] abbreviates: dose: 25.0 mg/kg/injection, schedule: Q01DX009 (ip), vehicle: saline with Tween-80.

The structures appear in SMILES notation. “And” between values parts separate entries of the source, which are not always exact repeats. Identical values can stand only once. Toxic doses and inconclusive results are not listed.

For the compound `CCN(CCO)CC(O)Cn1cnc2c(N)ncnc21` (stereo not drawn) (tested in a mixture with another compound), the T/C was 97 % of control under setting [1]; 100 % of control under setting [2]; 95 % of control (dose: 240.0 mg/kg/injection, schedule: Q01DX005 (ip), vehicle: saline).

As for `ClCSCc1ccccc1`, the T/C (dose: 12.5 mg/kg/injection, schedule: Q01DX009 (ip), vehicle: other) was 110 % of control; the T/C (dose: 25.0 mg/kg/injection, schedule: Q01DX009 (ip), vehicle: other) was 110 % of control; the T/C (dose: 50.0 mg/kg/injection, schedule: Q01DX009 (ip), vehicle: other) was 110 % of control.

Turning to `[Cl][Pt+2][Cl].[NH-]CC1(C[NH-])CCC1`, the T/C (dose: 0.38 mg/kg/injection, schedule: Q01DX009 (ip), vehicle: saline) was 114 % of control; the T/C (dose: 0.38 mg/kg/injection, schedule: Q01DX009 (ip), vehicle: suspension in saline) is 161 % of control; the T/C (dose: 0.75 mg/kg/injection, schedule: Q01DX009 (ip), vehicle: suspension in saline) was 215 % of control; the T/C (dose: 1.5 mg/kg/injection, schedule: Q01DX005 (ip), vehicle: saline) is 175 % of control; the T/C (dose: 1.5 mg/kg/injection, schedule: Q01DX005 (ip), vehicle: suspension in saline) is 161 % of control; the T/C (dose: 1.5 mg/kg/injection, schedule: Q01DX009 (ip), vehicle: saline) is 165 % of control. In addition, the T/C (dose: 1.5 mg/kg/injection, schedule: Q01DX009 (ip), vehicle: suspension in saline) is 247 % of control; the T/C (dose: 3.0 mg/kg/injection, schedule: Q01DX005 (ip), vehicle: saline) is 202 % of control; the T/C (dose: 3.0 mg/kg/injection, schedule: Q01DX005 (ip), vehicle: suspension in saline) is 191 % of control; the T/C (dose: 3.0 mg/kg/injection, schedule: Q01DX009 (ip), vehicle: saline) was 243 % of control; the T/C (dose: 3.0 mg/kg/injection, schedule: Q01DX009 (ip), vehicle: suspension in saline) was 159 % of control; the T/C (dose: 6.0 mg/kg/injection, schedule: Q01DX005 (ip), vehicle: saline) is 112 % of control. For the same compound, the T/C is 198 % of control (dose: 6.0 mg/kg/injection, schedule: Q01DX005 (ip), vehicle: suspension in saline); 215 % of control (dose: 6.0 mg/kg/injection, schedule: Q01DX009 (ip), vehicle: saline); 119 % of control (dose: 6.0 mg/kg/injection, schedule: Q01DX009 (ip), vehicle: suspension in saline).

Consider `NC(Cc1ccc(N(CCCl)CCCl)cc1)C(=O)O` (stereo not drawn), for which the T/C is 285 % of control and 309 % of control (dose: 3.12 mg/kg/injection, schedule: Q01DX009 (ip), vehicle: Klucel (hydroxypropylcellulose) (HPC)); 99 % of control and 105 % of control and 117 % of control (dose: 6.25 mg/kg/injection, schedule: Q01DX009 (ip), vehicle: Klucel (hydroxypropylcellulose) (HPC)).

As to `COc1c(-c2ccccc2)cc(-c2ccccc2)c(-c2ccccc2)c1-c1ccccc1`, the T/C is, setting by setting: under setting [3], 93 % of control; under setting [4], 86 % of control; under setting [5], 89 % of control.

`N=Nc1c(OC(=O)Nc2cccc(Cl)c2)[nH]c2ccccc12`: the T/C was 94 % of control under setting [6], 90 % of control under setting [7] and 93 % of control under setting [8].

Consider `O=C(CCc1ccc(O)cc1)ON1C(=O)CCC1=O`, for which the T/C is 108 % of control under setting [9], 109 % of control under setting [10] and 104 % of control under setting [11].

As to `CCCCCC(CN(C)C)C(O)CCc1ccc(Cl)c(Cl)c1` (stereo not drawn), the T/C runs as follows: under setting [10], 106 % of control; under setting [11], 98 % of control; under setting [12], 104 % of control.

With `Cc1cc(O)c(Cl)cc1Cl`, the T/C is 100 % of control (dose: 100.0 mg/kg/injection, schedule: Q01DX009 (ip), vehicle: saline); 99 % of control under setting [13]; 97 % of control (dose: 400.0 mg/kg/injection, schedule: Q01DX009 (ip), vehicle: saline).

For `N#Cc1c(-c2ccccc2)nc2sccn12`, the T/C was 88 % of control (dose: 100.0 mg/kg/injection, schedule: Q01DX001 (ip), vehicle: Klucel (hydroxypropylcellulose) (HPC)) and 91 % of control (dose: 400.0 mg/kg/injection, schedule: Q01DX001 (ip), vehicle: Klucel (hydroxypropylcellulose) (HPC)).

As to `Clc1ccc(Oc2ccc(N3C=Nc4ccc(Oc5ccc(Cl)cc5)cc4C3)cc2)cc1`, the T/C reads like this: under setting [7], 110 % of control; under setting [8], 100 % of control; (dose: 400.0 mg/kg/injection, schedule: Q01DX009 (ip), vehicle: saline with Tween-80) 115 % of control.

For `CCS(=O)c1ccccc1` (stereo not drawn), the T/C is 100 % of control (dose: 100.0 mg/kg/injection, schedule: Q04DX002 (ip), vehicle: Klucel (hydroxypropylcellulose) (HPC)); 100 % of control (dose: 200.0 mg/kg/injection, schedule: Q04DX002 (ip), vehicle: Klucel (hydroxypropylcellulose) (HPC)); 102 % of control (dose: 400.0 mg/kg/injection, schedule: Q04DX002 (ip), vehicle: Klucel (hydroxypropylcellulose) (HPC)).

For `CCC[CH2][Sn]([CH2]CCC)[CH2]CCC.CCC[CH2][Sn]([CH2]CCC)[CH2]CCC`, the T/C (dose: 1.56 mg/kg/injection, schedule: Q04DX002 (ip), vehicle: saline with Tween-80) was 103 % of control; the T/C (dose: 3.12 mg/kg/injection, schedule: Q04DX002 (ip), vehicle: saline with Tween-80) is 117 % of control; the T/C (dose: 6.25 mg/kg/injection, schedule: Q04DX002 (ip), vehicle: saline with Tween-80) was 103 % of control and 109 % of control; the T/C (dose: 100.0 mg/kg/injection, schedule: Q04DX003 (ip), vehicle: Klucel (hydroxypropylcellulose) (HPC)) was 118 % of control.

Take `CCN(CC)CCCC(C)NC(=S)N/N=C(\C)c1ccccn1` (stereo not drawn): the T/C (dose: 50.0 mg/kg/injection, schedule: Q01DX009 (ip), vehicle: saline) was 110 % of control and 113 % of control; the T/C under setting [13] was 157 % of control.

Take `O=S1(=O)c2ccccc2N(c2ccccc2)c2nnc(-c3ccccc3)n21`: the T/C was 93 % of control under setting [3], 92 % of control under setting [4] and 92 % of control under setting [5].

Consider `CC1=C(C(=O)Nc2ccccc2Cl)C(c2cccc([N+](=O)[O-])c2)C(C(=O)Nc2ccccc2Cl)=C(C)N1`, for which the T/C is 93 % of control (dose: 15.0 mg/kg/injection, schedule: Q01DX005 (ip), vehicle: Klucel (hydroxypropylcellulose) (HPC)); 90 % of control (dose: 30.0 mg/kg/injection, schedule: Q01DX005 (ip), vehicle: Klucel (hydroxypropylcellulose) (HPC)); 88 % of control (dose: 60.0 mg/kg/injection, schedule: Q01DX005 (ip), vehicle: Klucel (hydroxypropylcellulose) (HPC)).

Regarding `c1ccc(-c2nsc3ccccc23)cc1`, the T/C reads like this: under setting [14], 99 % of control; under setting [15], 106 % of control; under setting [16], 101 % of control.

Regarding `O=c1c2c(-c3cc(-c4ccccc4)nc4[nH]n(-c5ccccc5)c(=O)c34)cc(-c3ccccc3)nc2[nH]n1-c1ccccc1`, the T/C was 96 % of control under setting [14], 107 % of control under setting [15] and 96 % of control under setting [16].

On to `COc1ccc(CSC(=S)Nc2ccc(Cl)c(Cl)c2)cc1`, for which the T/C was 111 % of control under setting [9]; 120 % of control under setting [10]; 120 % of control and 121 % of control under setting [11]; 111 % of control under setting [12].

Regarding `CCOc1nsc(OCC)n1`, the T/C is, setting by setting: under setting [17], 103 % of control; under setting [18], 106 % of control; under setting [6], 106 % of control; under setting [7], 114 % of control.

Regarding `CN(C)c1ccc(CN(Cc2ccccc2)CC(O)c2ccccc2)cc1` (stereo not drawn), the T/C (dose: 6.25 mg/kg/injection, schedule: Q01DX009 (ip), vehicle: saline with Tween-80) was 97 % of control; the T/C under setting [17] is 100 % of control; the T/C under setting [18] was 100 % of control; the T/C under setting [6] is 102 % of control.

On to `O=P(O)(O)c1ccccc1P(=O)(O)O`, for which the T/C runs as follows: under setting [1], 105 % of control; under setting [2], 93 % of control.
